Measured values as given in publication PMC6404510 (Neural Regeneration Research, 2019).

What was measured:
NeuN+ neurons = assay: Fluorescence tracing of intranasal Alex546-Ins in rat brain sections; assay type: in vivo; conditions: rat brain sections after intranasal Alex546-Ins
[1] = monkeys, intranasal administration; ref Thorne et al., 2008; cited from earlier work

Molecule	Cell type binding Alex546-Ins (NeuN double-immunostaining) (NeuN+ neurons)	Time of earliest detection in CSF [1]
Alexa Fluor 546-labeled insulin [Alex546-Ins]	on the membrane of NeuN^+ neurons	
I^125-interferon-β1b (protein, UniProt P01574 22-187, looked up, variant C17S, I-125 radiolabel) Interferon beta: MSYNLLGFLQRSSNFQSQKLLWQLNGRLEYCLKDRMNFDIPEEIKQLQQFQKEDAALTIYEMLQNIFAIFRQDSSSTGWNETIVENLLANVYHQINHLKTVLEEKLEKEDFTRGKLMSSLHLKRYYGRILHYLKAKEYSHCAWTIVRVEILRNFYFINRLTGYLRN		≤ 30 min
